Laboratory results taken from US6730670B2, “7-phenyl-benzo[b]thiophen amide derivatives” (Hoffmann-La Roche Inc., priority 2001, dated 2004).

These molecules were tested against T1, human adenosine A2A receptor (Homo sapiens, UniProt P29274) (assay: [3H]-SCH-58261 binding assay, human adenosine A2A receptor (CHO cell membranes, SPA)). Conditions: [3H]-SCH-58261 1 nM; membranes of CHO cells expressing human A2A receptor; Ki from IC50 by Cheng-Prussoff equation; read-out: hA2 (pKi) (converted).
T1 construct: expressed in transfected cells; host or cells: CHO cells, Semliki Forest virus expression system; washed membrane preparation
T1 sequence (P29274 whole entry): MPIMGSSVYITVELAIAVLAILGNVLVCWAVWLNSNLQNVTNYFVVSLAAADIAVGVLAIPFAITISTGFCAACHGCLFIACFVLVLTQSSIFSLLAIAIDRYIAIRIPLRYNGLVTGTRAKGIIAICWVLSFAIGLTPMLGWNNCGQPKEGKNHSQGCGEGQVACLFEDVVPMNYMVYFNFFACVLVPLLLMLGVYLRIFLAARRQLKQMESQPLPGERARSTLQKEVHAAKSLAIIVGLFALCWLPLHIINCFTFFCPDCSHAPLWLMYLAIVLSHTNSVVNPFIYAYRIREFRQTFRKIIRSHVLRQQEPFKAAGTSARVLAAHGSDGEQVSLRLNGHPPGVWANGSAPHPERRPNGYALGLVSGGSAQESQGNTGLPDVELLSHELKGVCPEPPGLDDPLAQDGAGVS
Protocol: Human Adenosine A2A Receptor
The human adenosine A2A receptor was recombinantly expressed in chinese hamster ovary (CHO) cells using the semliki forest virus expression system. Cells were harvested, washed twice by centrifugation, homogenized and again washed by centrifugation. The final washed membrane pellet was suspended in a Tris (50 mM) buffer containing 120 mM NaCl, 5 mM KCl, 2 mM CaCl2 and 10 mM MgCl2 (pH 7.4) (buffer A). The [^3H]-SCH-58261 (Dionisotti et al., 1997, Br J Pharmacol 121, 353; 1 nM) binding assay was carried out in 96-well plates in the presence of 2.5 μg of membrane protein, 0.5 mg of Ysi-poly-1-lysine SPA beads and 0.1 U adenosine deaminase in a final volume of 200 μl of buffer A. Non-specific binding was defined using xanthine amine congener (XAC; 2 μM). Compounds were tested at 10 concentrations from 10 μM-0.3 nM. All assays were conducted in duplicate and repeated at least two times. Assay plates were incubated for 1 hour at room temperature before centricentrifugation and then bound ligand determined of test compound using a Packard Topcount scintillation counter. IC50 values, the concentration where 50% of the […] binding is displaced, were calculated using a non-linear curve fitting program and Ki values calculated using the Cheng-Prussoff equation.
Preferred compounds of formula I have a pKi>6.4.

Structure (SMILES) | Ki [nM]
COc1ccc(-c2ccccc2)c2sc(NC(=O)N3CCSCC3)cc12 [Example 1, Thiomorpholine-4-carboxylic acid (4-methoxy-7-phenyl-benzo[b]thiophen-2-yl)-amide] | 155
COc1ccc(-c2ccccc2)c2sc(NC(=O)N3CCOCC3)cc12 [Example 2, Morpholine-4-carboxylic acid (4-methoxy-7-phenyl-benzo[b]thiophen-2-yl)-amide] | 263
COc1ccc(-c2ccccc2)c2sc(NC(=O)N3CCCCC3)cc12 [Example 3, Piperidine-1-carboxylic acid (4-methoxy-7-phenyl-benzo[b]thiophen-2-yl)-amide] | 257
COc1ccc(-c2ccccc2)c2sc(NC(=O)N3CCC(O)CC3)cc12 [Example 4, 4-Hydroxy-piperidine-1-carboxylic acid (4-methoxy-7-phenyl-benzo[b]thiophen-2-yl)-amide] | 126
COc1ccc(-c2ccccc2)c2sc(NC(=O)N3CCC(OC)CC3)cc12 [Example 5, 4-Methoxy-piperidine-1-carboxylic acid (4-methoxy-7-phenyl-benzo[b]thiophen-2-yl)-amide] | 347
COc1ccc(-c2ccccc2)c2sc(NC(=O)N3CCC(CO)CC3)cc12 [Example 6, 4-Hydroxymethyl-piperidine-1-carboxylic acid (4-methoxy-7-phenyl-benzo[b]thiophen-2-yl)-amide] | 97.7
COc1ccc(-c2ccccc2)c2sc(NC(=O)N3CCN(C)CC3)cc12 [Example 7, 4-Methyl-piperazine-1-carboxylic acid (4-methoxy-7-phenyl-benzo[b]thiophen-2-yl)-amide] | 240
COc1ccc(-c2ccccc2)c2sc(NC(=O)c3ccc(C)nc3)cc12 [Example 8, N-(4-Methoxy-7-phenyl-benzo[b]thiophen-2-yl)-6-methyl-nicotinamide] | 302
COc1ccc(-c2ccccc2)c2sc(NC(=O)c3ccnc(C)c3)cc12 [Example 9, N-(4-Methoxy-7-phenyl-benzo[b]thiophen-2-yl)-2-methyl-isonicotinamide] | 389
COc1ccc(-c2ccccc2)c2sc(NC(=O)c3ccc(F)cc3)cc12 [Example 10, 4-Fluoro-N-(4-methoxy-7-phenyl-benzo[b]thiophen-2-yl)-benzamide] | 43.7
